This note sets out measurements from patent US20220162552A1, “Nonviral Modification of T Cell Gene Expression” (Precision NanoSystems Inc., priority 2019, published 2022).

What all share (format): cell-based
The test system of assay [1] is isolated primary human T cells. Description: eGFP mRNA LNP transfection of T cells, 125,000 cells per well format (day 3/4/7), flow cytometry. The conditions noted are these: CT10 composition, six donors, day 7. How it is done:
Isolation of primary T cells from human whole blood and activation/expansion was performed as in general procedures above. Isolated T cells were exposed to the formulated mRNA three days after activation; in the T cell growth curve, this time point corresponds to just before or at the log phase of growth. A dose of 125 ng of CleanCap™ EGFP (Trilink Biotechnologies, San Diego, Calif.) mRNA encapsulated in LNP (see details below) was added to about 125,000 T cells in 0.25 mL of complete T cell media, with 1 ug/mL of Recombinant Human ApoE4 (“ApoE”) (Peprotech Inc., Montreal, Canada).
The volume of LNP required for T cell treatment was calculated based upon Ribogreen™ assay results. T cells were counted through Trypan blue (Sigma) exclusion and diluted to 500,000 cells/mL. […]
Lipid mix compositions were tested for their ability to induce transfection, using flow cytometry to measure the geometric mean fluorescence intensity of eGFP. Shown in FIG. 11 A(i) to D(ii) are the transfection efficiencies (i) and mean fluorescence intensities (ii) of mRNA LNPs encoding eGFP in isolated primary human T cells under various conditions. […]
GFP expression in isolated primary human T cells mediated by mRNA-LNPs containing BOCHD-C3-DMA with CT10 composition at N/P 8 is shown in FIG. 16. Transfection efficiency, viability and GFP MFI measured by flow cytometry 48 hours after LNP addition. […]

The test system of the next assay is primary human T cells. The assay can be described thus: EPO mRNA LNP delivery to T cells, Human Epo ELISA. The conditions noted are these: CT10 LNPs, 48 h. How it is done: Reagents were acquired from Quantikine, Minneapolis, Minn. The assay was performed as directed on the Quantikine® IVD® ELISA Human Erythropoietin Immunoassay protocol REF DEP00 Package Insert. Briefly; primary human T cells were isolated from fresh whole blood using a negative selection protocol and activated using a triple activator. At 7 days post-activation, the cells were treated with mRNA LNPs encoding EPO at 2 μg mRNA per 500,000 cells and N/P 10. After 48 hours of treatment with mRNA LNPs, the T cells were harvested and lysed for cytosolic EPO and media supernatant was sampled for secreted EPO. Quantikine® Human Serum Controls were used.
Frozen human T cells, previously isolated from fresh human whole blood using a negative selection protocol, were thawed and activated using a triple activator as previously described. At seven days post-activation, T cells were dosed with CT10 formulated mRNA LNPs encoding recombinant human erythropoietin (EPO) determined by ELISA (R&D Systems) at 2 μg mRNA per 500,000 cells and N/P 10. After 48 hours of treatment with mRNA LNPs the T cells were harvested and lysed for cytosolic EPO and media supernatant was sampled for secreted EPO.

Assay [2] relates to primary human T cells (live CD4+/CD8+ T cells). The assay can be described thus: eGFP mRNA LNP transfection of activated T cells on day 7, 2 μg mRNA per 500,000 cells, flow cytometry after 48 h. The conditions noted are these: for MFI results by ionizable lipid: MC3 versus BOCHD-C3-DMA; for activity of the lipid mix composition to transfect T cells by ionizable lipid (FIG. 10 upper): same ratios and materials, ionizable lipid varied. How it is done:
All reagents from StemCell Technologies unless otherwise stated. T cells were isolated from whole human peripheral blood using a negative selection isolation procedure (EasySep™ Human T Cell Isolation Kit). T cell activation and expansion was carried out using Immunocult™ Human CD3/CD28/CD2 Activator in ImmunoCult™ Human T Cell Expansion Media supplemented with recombinant human IL-2 (Peprotech Inc., Rocky Hill USA). T cells typically enter a logarithmic phase of growth 48-96 hours after activation, which phase is characterized by a period of rapid proliferation and metabolic activity for 24-72 hours followed by a plateau in the growth curve as the cells start to return to a quiescent state. As depicted in FIG. 1, T cells may be exposed to lipid nucleic acid before or during the log phase of growth (day 3), or after the log phase of growth (day 7).
We tested the compositions of new Lipid Mixes against standard Lipid Mix A (all with BOCHD-C3-DMA as IL unless otherwise stated) using the triple T cell activation protocol (Pan T cells were activated with trio activator comprising anti-CD3/CD28/CD2 antibody) in LNP-mediated mRNA delivery and expression in vitro.
LNP formulated EGFP mRNA (Trilink Biotechnologies, San Diego, Calif.) was added to 500,000 T cells in 1 mL of complete T cell media, with 1 μg/mL of Recombinant Human ApoE4 (“ApoE”) (Peprotech Inc.).
The volume of LNAP required to achieve the desired dose of mRNA was calculated based on the concentration of encapsulated mRNA as determined by modified Ribogreen™ assay. T cells were counted through Trypan blue (Sigma) exclusion and diluted to 500,000 cells/mL. Briefly, in a 12 well plate, 1 mL was aliquoted into each well. ApoE was added to a final concentration of 1 ug/mL in each well. Based upon the calculation in step 1, the required amount of mRNA LNP was added, in this case 2 μg, and the plate incubated for 48 hours.
Different lipid mix compositions were tested for their ability to induce transfection as measured by geometric mean fluorescence intensity of GFP expressed in T cells (as measured by flow cytometry).
Three isolations of T cells were taken from a single donor and divided into three groups: Pan T cells (all T cells), CD4+ T cells alone, and CD8+ T cells alone. At 48H following lipid particle mRNA exposure, the treated T cells were harvested by transferring the cell suspensions to pre-labeled 1.5 mL tubes and centrifuged 300×g at 4 degrees Celsius for 10 minutes. Supernatant was removed and the pellet resuspended in PBS. An amount of 0.5 ul of BD Horizon™ Fixable Viability Stain 575V™ (BD Biosciences) was added, and the mixture incubated in the dark for 10 minutes at RT. The cells were centrifuged again as before, then washed twice with 1 mL of Stain buffer (BSA, BD Pharminigen), and the washed pellet placed in 100 μl BSA. The following antibodies were added to each tube of treated cells in 2 μl volumes: anit-CD25, anti-CD8, anti-CD4, (PerCP-Cy 5.5 Mouse Anti Human CD25, BV786 Mouse Anti-Human CD8 Clone RPA-T8, and APC-Cy™ 7 Mouse Anti-Human CD4 Clone SK3, all from BD Pharmingen). For compensation purposes, in the GFP only sample and viability control, no antibody was added, while in the single stain compensation tubes, only one antibody was added.
The tubes were incubated at 4 degrees C. for 30 min, whereupon […] of stain buffer (BSA) was added, and the cells were centrifuged again. Cells were washed once with 1 mL of stain buffer and spun down again as in step 1. Cell pellets were resuspended in 1 mL of stain buffer and added to pre-labeled flow tubes with cell strainer caps (Corning Falcon).
Histogram Analysis of T Cell Populations was generated as follows: Flow cytometry was performed on the live primary human T cells. […] All LNP compositions contained BOCHD-C3-DMA as ionizable lipid (IL). […]

For the compound `CCCCCCCCC1CC1CCCCCCCCC(CCCCCCCCC1CC1CCCCCCCC)OC(=O)CCCN(C)C.Cl` (stereo not drawn) [BOCHD-C3-DMA, 1,17-bis(2-octylcyclopropyl)heptadecan-9-yl 4-(dimethylamino) butanoate hydrochloride], in assay [1], the “donor to donor variability by ionizable lipid (FIG. 15)” value is “no substantial difference”. Moreover, the “level of secreted EPO by ionizable lipid” value in the assay with primary human T cells was “higher level of secreted EPO than MC3 LNPs”. In addition, in assay [2], the “MFI results by ionizable lipid” value was “comparable” and the “activity of the lipid mix composition to transfect T cells by ionizable lipid (FIG. 10 upper)” value (“activity … (FIG. 10 upper)” for short) is given as “without affecting the activity of the lipid mix composition to transfect T cells”.

Consider `CCCCCCCCCCCCCCCCCC(=O)OC[C@H](COP(=O)([O-])OCC[N+](C)(C)C)OC(=O)CCCCCCCCCCCCCCCCC` [DSPC, distearoylphosphatidylcholine], for which the “T cell transfection by structural lipid (FIG. 8)” value in assay [2] (Lipid Mix CT22 ratios, structural lipid DOPE or DSPC, N/P 10) is listed as “better than DOPE”.

Regarding `CCCCC/C=C\C/C=C\CCCCCCCCC1(CCCCCCCC/C=C\C/C=C\CCCCC)OCC(CCN(C)C)O1` (stereo not drawn) [KC2, 2,2-dilinoleyl-4-(2-dimethylaminoethyl)-[1,3]-dioxolane, reference compound], in assay [2], the “activity … (FIG. 10 upper)” value was “without affecting the activity of the lipid mix composition to transfect T cells”.

Take `CCCCCC=CCC=CCCCCCCCCC(CCCCCCCCC=CCC=CCCCCC)OC(=O)CCCN(C)C` (stereo not drawn) [MC3, heptatriaconta-6,9,28,31-tetraen-19-yl 4-(dimethylamino)butanoate, reference compound]: in assay [1], the “donor to donor variability by ionizable lipid (FIG. 15)” value is “no substantial difference”. In addition, in assay [2], the “MFI results by ionizable lipid” value is reported as “comparable” and the “activity … (FIG. 10 upper)” value is reported as “without affecting the activity of the lipid mix composition to transfect T cells”.
